Reference: ChEMBL document CHEMBL5030556, “Selection and Identification of Novel Antibacterial Agents against Planktonic Growth and Biofilm Formation of Enterococcus faecalis” (J Med Chem, 2021)
Calls of active or inactive are those of the source. The calls are words filed in the database; no cut-off is given here.

Tests used:
[1] = Inhibition of Enterococcus faecalis OG1RF YycG autophosphorylation by Kinase-Glo luminescent kinase assay
Enterococcus faecalis [2] = experiment: Antimicrobial activity against Enterococcus faecalis OG1RF assessed as reduction in visible bacterial growth incubated for 16 to 20 hrs by microdilution broth assay; type: functional; conditions: time 16-20 hrs
Enterococcus faecalis [3] = experiment: Binding affinity to Enterococcus faecalis FB-1 YycG assessed as slow association and slow dissociation measured by Octet RED96 response assay
Enterococcus faecalis [4] = experiment: Antibiofilm activity against Enterococcus faecalis assessed as reduction in amount of viable biofilm-embedded bacterial cells at 50 uM in presence of ampicillin measured by YTO 9/PI staining followed by confocal laser scanning microscopy; type: functional
Staphylococcus aureus [5] = experiment: Antibiofilm activity against Staphylococcus aureus assessed as inhibition of biofilm formation at sub-MIC concentration; type: functional, organism-based
[6] = system: Staphylococcus epidermidis; experiment: Antibacterial activity against Staphylococcus epidermidis ATCC 12228 assessed as reduction in visible bacterial growth incubated for 16 to 20 hrs by microdilution broth assay; type: functional; conditions: time 16-20 hrs
[7] = Hemolytic activity against human erythrocytes at 50 uM incubated for 1 hr at 570 nm by spectrophotometry; type: ADME, tissue-based, Erythrocyte; conditions: read-out: Activity
[8] = system: Staphylococcus epidermidis; experiment: Antibacterial activity against Staphylococcus epidermidis ATCC 35984 assessed as reduction in visible bacterial growth incubated for 16 to 20 hrs by microdilution broth assay; type: functional; conditions: time 16-20 hrs
Streptococcus agalactiae [9] = experiment: Antibiofilm activity against Streptococcus agalactiae assessed as inhibition of biofilm formation at sub-MIC concentration; type: functional, organism-based
Staphylococcus aureus [10] = experiment: Antibacterial activity against Staphylococcus aureus ATCC 29213 assessed as reduction in visible bacterial growth incubated for 16 to 20 hrs by microdilution broth assay; type: functional; conditions: time 16-20 hrs
Enterococcus faecalis [11] = experiment: Antibacterial activity against Enterococcus faecalis ATCC 29212 assessed as reduction in visible bacterial growth incubated for 16 to 20 hrs by microdilution broth assay; type: functional; conditions: time 16-20 hrs
Enterococcus faecalis [12] = experiment: Effect on initial adhesion capacity of Enterococcus faecalis assessed as attached cells at 25 uM for 6 hrs by crystal violet staining based microscopic assay (reference value: 0.412); type: functional
Escherichia coli = experiment: Antibacterial activity against Escherichia coli […] assessed as reduction in visible bacterial growth incubated for 16 to 20 hrs by microdilution broth assay; type: functional; conditions: time 16-20 hrs
Enterococcus faecalis [13] = experiment: Antibacterial activity against Enterococcus faecalis OG1RF assessed as reduction in visible bacterial growth incubated for 16 to 20 hrs by microdilution broth assay; type: functional; conditions: time 16-20 hrs
Enterococcus faecalis [14] = experiment: Antibiofilm activity against Enterococcus faecalis FB-1 assessed as eradication of mature biofilm measured after 72 hrs by semiquantitative microtiter assay; type: functional
Staphylococcus aureus [15] = experiment: Antibacterial activity against Staphylococcus aureus ATCC 35556 assessed as reduction in visible bacterial growth incubated for 16 to 20 hrs by microdilution broth assay; type: functional; conditions: time 16-20 hrs
[16] = Cytotoxicity against african green monkey Vero cells assessed as inhibition of cell growth by MTT assay; type: cell-based; conditions: chlorocebus sabaeus
Streptococcus agalactiae [17] = experiment: Antibacterial activity against Streptococcus agalactiae NSGC64 assessed as reduction in visible bacterial growth incubated for 16 to 20 hrs by microdilution broth assay; type: functional; conditions: time 16-20 hrs
Enterococcus faecalis [18] = experiment: Antibiofilm activity against Enterococcus faecalis FB-1 assessed as inhibition of biofilm infection at 25 uM by fluid shear system; type: functional, organism-based
[19] = Hemolytic activity against human erythrocytes at 200 uM incubated for 1 hr at 570 nm by spectrophotometry; type: ADME, tissue-based, Erythrocyte; conditions: read-out: Activity
Enterococcus faecium [20] = experiment: Antibacterial activity against Enterococcus faecium EF16M64 assessed as reduction in visible bacterial growth incubated for 16 to 20 hrs by microdilution broth assay; type: functional; conditions: time 16-20 hrs
[21] = system: Staphylococcus epidermidis; experiment: Antibiofilm activity against Staphylococcus epidermidis assessed as inhibition of biofilm formation at sub-MIC concentration; type: functional, organism-based
Enterococcus faecalis [22] = experiment: Antibacterial activity against Enterococcus faecalis FB-1 assessed as reduction in visible bacterial growth incubated for 16 to 20 hrs by microdilution broth assay; type: functional; conditions: time 16-20 hrs
Enterococcus faecalis [23] = experiment: Antibiofilm activity against Enterococcus faecalis FB-1 assessed as inhibition of biofilm maturation at 1.56 uM measured after 24 hr; type: functional, organism-based
Enterococcus faecalis [24] = experiment: Antibiofilm activity against Enterococcus faecalis FB-1 assessed as eradication of mature biofilm measured after 48 hrs by semiquantitative microtiter assay; type: functional
Enterococcus faecalis [25] = experiment: Bactericidal activity against Enterococcus faecalis OG1RF assessed as reduction in bacterial colonies incubated for 16 to 20 hrs by microdilution broth analysis; type: functional; conditions: time 16-20 hrs, read-out: MBC99.9
Enterococcus faecalis [26] = experiment: Antibiofilm activity against Enterococcus faecalis assessed as reduction in amount of viable biofilm-embedded bacterial cells at 50 uM in presence of daptomycin measured by YTO 9/PI staining followed by confocal laser scanning microscopy; type: functional
Enterococcus faecalis [27] = experiment: Bacteriostatic activity against planktonic cells of Enterococcus faecalis OG1RF measured by microdilution broth assay; type: functional, organism-based
Enterococcus faecalis [28] = experiment: Antibiofilm activity against Enterococcus faecalis assessed as reduction in amount of viable biofilm-embedded bacterial cells at 50 uM measured by YTO 9/PI staining followed by confocal laser scanning microscopy; type: functional
Enterococcus faecalis [29] = experiment: Antibiofilm activity against Enterococcus faecalis FB-1 assessed as inhibition of biofilm maturation measured after 24 hr; type: functional, organism-based
Enterococcus faecalis [30] = experiment: Inhibition of biofilm formation of Enterococcus faecalis FB-1 assessed as inhibitory rate of formation at 100 uM for 24 hrs measured at 570 nm by crystal violet staining based spectrophotometry; type: functional
Enterococcus faecalis [31] = experiment: Antibiofilm activity against Enterococcus faecalis assessed as inhibition of biofilm at 1/2 times of MIC incubated for 24 hrs; type: functional; design: scale not given: the % may be the effect or the level left
Enterococcus faecium [32] = experiment: Antibiofilm activity against Enterococcus faecium assessed as inhibition of biofilm formation at sub-MIC concentration; type: functional, organism-based

COc1cc(C2C(C(=O)c3cc4ccccc4o3)=C(O)C(=O)N2c2nnc(SCc3ccccc3Cl)s2)ccc1O (stereo not drawn)
IC50 [1]: 6.1 µM
MIC (Enterococcus faecalis [2]): > 200 µM
Activity (Enterococcus faecalis [3]): Active
Activity (Enterococcus faecalis [4]): 72.71%
Activity (Staphylococcus aureus [5]): Active
MIC [6]: > 200 µM
hemolysis at 1 h, 50 µM [7]: 2.77%
MIC [8]: > 200 µM
Activity (Streptococcus agalactiae [9]): Active
MIC (Staphylococcus aureus [10]): > 200 µM
MIC (Enterococcus faecalis [11]): > 200 µM
OD (Enterococcus faecalis [12]): 0.143
MIC (Escherichia coli): > 200 µM
MIC (Enterococcus faecalis [13]): > 200 µM
Activity (Enterococcus faecalis [14]): 66%
MIC (Staphylococcus aureus [15]): > 200 µM
CC50 [16]: > 200 µM
MIC (Streptococcus agalactiae [17]): > 200 µM
Activity (Enterococcus faecalis [18]): Active
hemolysis at 1 h, 200 µM [19]: 6.14%
MIC (Enterococcus faecium [20]): > 200 µM
Activity [21]: Active
MIC (Enterococcus faecalis [22]): > 200 µM
Activity (Enterococcus faecalis [23]): Active
Activity (Enterococcus faecalis [24]): 51%
MBC (Enterococcus faecalis [25]): > 200 µM
Activity (Enterococcus faecalis [26]): 47.16%
Activity (Enterococcus faecalis [27]): inactive
Activity (Enterococcus faecalis [28]): 52.85%
Activity (Enterococcus faecalis [29]): Dose-Dependent Effect
inhibition at 100 µM (Enterococcus faecalis [30]): 92.7%
Activity (Enterococcus faecalis [31]): 74.8%
Activity (Enterococcus faecium [32]): Active
